2 compounds from PMC12030627, “Radioiodinated Bicyclic RGD Peptide Derivatives for Enhanced Tumor Accumulation” (Pharmaceuticals, 2025) can be followed below.

For this series, the system named is U-87 MG-bearing mice. The series is described as follows: Biodistribution in U-87 MG tumor-bearing mice. The series is classed as in vivo, BALB/c nu-nu mice. The note with it: U-87 MG-bearing mice, mean ± SD, n = 3. Here is the method:
Animal experiments were performed in compliance with institutional animal care regulations, with the study protocol approved by the Experimental Animal Committee of Osaka Medical and Pharmaceutical University (Approval Numbers: 21–76, 22–76, and 23–76). Four-week-old male BALB/c nu-nu mice (Japan SLC, Shizuoka, Japan) were housed under a 12 h light/12 h dark cycle with free access to food and water. Tumor-bearing mice were established by suspending U-87 MG cells (2 × 10^6 cells/mouse) in PBS(–) and subcutaneously injecting 100 μL of the suspension into the right hind leg. For co-implantation models, A549 cells (2 × 10^6 cells/mouse) were suspended in PBS(–) and inoculated (100 μL) into the left hind leg of the same mice already inoculated with U-87 MG cells. Mice with tumor size approximately 10 mm in diameter, 4–5 weeks after inoculation, were used for biodistribution studies. Animals in which either tumor was not viable were excluded from the experiment.
U-87 MG-bearing mice (n = 42, 8–9 weeks old; 22–27 g) were randomly assigned into groups and administered [^125I]bcRGDpal or [^125I]bcRGDiba via intravenous injection (37 kBq in 100 μL of PBS containing 0.1% Tween 80 (PBS-T80)). At 5 min, 30 min, 1 h, 2 h, 6 h, 12 h, or 24 h post-injection, the mice were euthanized (n = 3 per time point). The heart, kidneys, liver, brain, pancreas, spleen, lung, small intestine, large intestine, muscle, skin, stomach, bone, and tumors were excised. Each organ’s weight and radioactivity were measured by a NaI well-type scintillation counter, and the % ID/g was calculated. To investigate the correlation between integrin expression and radioactivity accumulation, biodistribution at 2 h after administration of [^125I]bcRGDpal or [^125I]bcRGDiba was assessed in A549 and U-87 MG co-implantation mice (n = 5) using the same procedure. Additionally, co-implantation mice were injected with [^125I]bcRGDdimer (37 kBq/100 μL PBS-T80) and euthanized at 30 min, 2 h, and 4 h post-injection (n = 4 per time point), and % ID/g values were calculated as described above. The minimum sample size needed for the biodistribution study in U-87 MG-bearing mice was calculated using G Power software version 3.1.9.7. The calculation was based on a two-tailed test, with an effect size of 3.9, a significance level (α) of 0.05, and a statistical power (1 − β) of 0.8. […] The minimum required sample size for the biodistribution study in A549 and U-87 MG co-implantation mice was also calculated to be four animals per group (effect size = 2.5, α = 0.05, 1 − β = 0.8). To guarantee objective results, the experiment was carried out in a blinded manner. Specifically, drug administration and radioactivity measurements were conducted by different investigators to eliminate potential bias.

[1] abbreviates: 5 min after i.v. administration.
The mark [2] stands for this setting: 30 min after i.v. administration.

Starred links: 1 amine or outer side, 2 acyl side, 3 side chain; linkers in the order of their positions; H or OH if unused. Positions of bridges follow the written chain, without caps; N, C: chain ends. Non-standard residues stand in square brackets, D forms with d. Residues, ends and D or L forms follow the SMILES beside them. *: point of attachment. Butanoyl(4-(4-I-phenyl)) = O=C(CCCc1ccc(I)cc1)*; TBMB = c1c(C[*:1])cc(C[*:3])cc1C[*:2]; Palmitoyl = CCCCCCCCCCCCCCCC(=O)*; Benzoyl(3-I) = O=C(c1cccc(I)c1)*; 4Abz = Nc1ccc(C(=O)O)cc1

For `N=C(N)NCCC[C@@H]1NC(=O)[C@H]2CSCc3cc(cc(c3)CSC[C@H](C(N)=O)NC(=O)[C@H](CC(=O)O)NC(=O)CNC1=O)CSC[C@H](NC(=O)CNC(=O)[C@H](CO)NC(=O)c1ccc(NC(=O)CNC(=O)[C@H](CO)NC(=O)[C@@H]3CCCN3C(=O)[C@@H]3CCCN3C(=O)[C@@H]3CCCN3C(=O)[C@H](CCCCNC(=O)c3cccc(I)c3)NC(=O)CCCc3ccc(I)cc3)cc1)C(=O)N[C@@H](Cc1c[nH]cn1)C(=O)N1CCC[C@H]1C(=O)N[C@@H](CCC(N)=O)C(=O)N2` [[^125I]bcRGDiba] ({Butanoyl(4-(4-I-phenyl))}-K(Benzoyl(3-I))PPPSG[4Abz]SGCHPQ[dC]RGD[dC]-NH2; linker 10-14-18 via TBMB), the U87/Blood radioactivity ratio was determined as 0.1 ± 0.0 under setting [1]; 0.2 ± 0.0 under setting [2]; 0.2 ± 0.0 (1 h after i.v. administration); 0.3 ± 0.0 (2 h after i.v. administration); 0.3 ± 0.0 (6 h after i.v. administration); 0.4 ± 0.1 (12 h after i.v. administration). Moreover, for the setting “24 h after i.v. administration”, the U87/Blood radioactivity ratio is 0.4 ± 0.1. Also, the U87/Muscle radioactivity ratio was found to be 1.6 ± 0.3 under setting [1]; 2.3 ± 0.6 under setting [2]; 2.3 ± 0.4 (1 h after i.v. administration); 2.4 ± 0.3 (2 h after i.v. administration); 2.5 ± 0.3 (6 h after i.v. administration); 2.6 ± 0.3 (12 h after i.v. administration). Further, under “24 h after i.v. administration”, the U87/Muscle radioactivity ratio is 2.1 ± 0.4. For the same compound, the Radioactivity in thyroid worked out at 0.0 ± 0.0 % injected dose (12 h after i.v. administration) and 0.0 ± 0.0 % injected dose (24 h after i.v. administration). Also, the “Radioactivity in U-87 MG tumor” value (24 h after i.v. administration) is recorded as 0.5 % ID/g. In addition, the Radioactivity in brain (24 h after i.v. administration) was 0.0 ± 0.0 % injected dose per gram of tissue.

Regarding `CCCCCCCCCCCCCCCC(=O)N[C@@H](CCCCNC(=O)c1cccc(I)c1)C(=O)N1CCC[C@H]1C(=O)N1CCC[C@H]1C(=O)N1CCC[C@H]1C(=O)N[C@@H](CO)C(=O)NCC(=O)Nc1ccc(C(=O)N[C@@H](CO)C(=O)NCC(=O)N[C@H]2CSCc3cc4cc(c3)CSC[C@@H](NC(=O)[C@H](CCC(N)=O)NC(=O)[C@@H]3CCCN3C(=O)[C@H](Cc3c[nH]cn3)NC2=O)C(=O)N[C@@H](CCCNC(=N)N)C(=O)NCC(=O)N[C@@H](CC(=O)O)C(=O)N[C@@H](C(N)=O)CSC4)cc1` [[^125I]bcRGDpal] (Palmitoyl-K(Benzoyl(3-I))PPPSG[4Abz]SGCHPQ[dC]RGD[dC]-NH2; linker 10-14-18 via TBMB), the U87/Blood radioactivity ratio is, setting by setting: under setting [1], 0.1 ± 0.0; under setting [2], 0.3 ± 0.0; (1 h after i.v. administration) 0.4 ± 0.1; (2 h after i.v. administration) 0.5 ± 0.0; (6 h after i.v. administration) 0.5 ± 0.1; (12 h after i.v. administration) 0.4 ± 0.0. The U87/Blood radioactivity ratio (24 h after i.v. administration) turned out to be 0.5 ± 0.1. In addition, the U87/Muscle radioactivity ratio stood at 2.1 ± 0.3 under setting [2]; 2.9 ± 0.2 (1 h after i.v. administration); 3.7 ± 0.4 (2 h after i.v. administration); 3.3 ± 0.8 (6 h after i.v. administration); 3.4 ± 0.5 (12 h after i.v. administration); 2.4 ± 0.4 (24 h after i.v. administration). In addition, the Radioactivity in thyroid is recorded as 0.0 ± 0.0 % injected dose (12 h after i.v. administration) and 0.0 ± 0.0 % injected dose (24 h after i.v. administration). The “Radioactivity in U-87 MG tumor” value (24 h after i.v. administration) is on record as 0.3 % ID/g. In addition, under “24 h after i.v. administration”, the Radioactivity in brain is recorded as 0.0 ± 0.0 % injected dose per gram of tissue.
